Results on 8 compounds are retold here after patent US5324726A, “Benzodiazepine analogs” (Merck & Co., Inc., priority 1992, dated 1994).

“Also recorded” adds a separate entry of the source. Square brackets hold non-standard residues; d marks the D form. Peptide text beside a SMILES is read from it. * marks the point of attachment. sY = N[C@@H](Cc1ccc(OS(=O)(=O)O)cc1)C(=O)O; Cbz = O=C(OCc1ccccc1)*; Boc = CC(C)(C)OC(=O)*

In one assay the test system is gastrin. The conditions noted are these: background literature; in vitro; cited from earlier work.
The target in the next assay is T1, CCK receptor, pancreas (Rattus norvegicus, UniProt P30551).
T1 construct: The whole pancreas was dissected free of fat tissue and was homogenized; from tissue; host or cells: rat pancreas membranes
T1 sequence (P30551 1-444): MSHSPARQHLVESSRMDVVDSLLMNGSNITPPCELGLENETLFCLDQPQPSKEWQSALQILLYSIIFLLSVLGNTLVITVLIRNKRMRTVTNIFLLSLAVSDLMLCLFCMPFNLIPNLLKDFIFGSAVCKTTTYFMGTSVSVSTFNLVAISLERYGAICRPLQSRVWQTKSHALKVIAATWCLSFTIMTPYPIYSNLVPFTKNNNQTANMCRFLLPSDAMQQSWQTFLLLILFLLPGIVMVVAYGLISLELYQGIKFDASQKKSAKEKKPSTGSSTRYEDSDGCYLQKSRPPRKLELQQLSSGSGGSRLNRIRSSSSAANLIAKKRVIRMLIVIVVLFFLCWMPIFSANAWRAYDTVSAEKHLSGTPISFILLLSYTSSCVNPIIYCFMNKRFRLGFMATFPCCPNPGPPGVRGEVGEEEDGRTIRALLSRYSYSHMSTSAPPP
Briefly: CCK Receptor Binding (Pancreas): inhibition of 125I-CCK(-33) binding. Conditions: protease inhibitors added to the binding assay. On the set-up: species or system rat (Male Sprague-Dawley). Here is the method:
1. CCK Receptor Binding (Pancreas)
CCK-33 was radiolabeled with ^125 I-Bolton Hunter reagent (2000 Ci/mmole) as described by Sankara et al. (J. Biol. Chem. 254: 9349-9351, 1979). Receptor binding was performed according to Innis and Snyder (Proc. Natl. Acad. Sci. 77, 6917-6921, 1980) with the minor modification of adding the additional protease inhibitors, phenylmethane sulfonyl fluoride and o-phenanthroline. The latter two compounds have no effect on the ^125 -CCK receptor binding assay.
Male Sprague-Dawley rats (200-350 g) were sacrificed by decapitation. The whole pancreas was dissected free of fat tissue and was homogenized in 20 volumes of ice-cold 50 mM, Tris HCl (pH 7.7 at 25° C.) with a Brinkmann Polytron PT 10. The homogenates were centrifuged at 48,000 g for 10 min. Pellets were resuspended in Tris Buffer, centrifuged as above and resuspended in 200 volumes of binding assay buffer (50 mM Tris HCl, pH 7.7 at 25° C., 5 mM dithiothrietol, 0.1 mM bacitracin, 1.2 mM phenylmethane sulfonyl fluoride and 0.5 mM o-phenanthroline). […] All assays were run in duplicate or triplicate. The reaction mixtures were incubated at 37° C. for 30 minutes and centrifuged in a Beckman Microfuge (4 minutes) immediately after adding 1 ml of ice-cold incubation buffer. The supernatant was aspirated and discarded, pellets were counted with a Beckman gamma 5000. […]

For another assay, the system named is CCK receptor. The conditions noted are these: background literature; cited from earlier work.
Assay [1] concerns the target T2, CCK receptor, brain (cerebral cortex) (Cavia porcellus, UniProt H0VZC5).
T2 construct: Cerebral cortex was dissected and used as a receptor source; from tissue; host or cells: guinea pig cerebral cortex membranes
T2 sequence (H0VZC5 1-426): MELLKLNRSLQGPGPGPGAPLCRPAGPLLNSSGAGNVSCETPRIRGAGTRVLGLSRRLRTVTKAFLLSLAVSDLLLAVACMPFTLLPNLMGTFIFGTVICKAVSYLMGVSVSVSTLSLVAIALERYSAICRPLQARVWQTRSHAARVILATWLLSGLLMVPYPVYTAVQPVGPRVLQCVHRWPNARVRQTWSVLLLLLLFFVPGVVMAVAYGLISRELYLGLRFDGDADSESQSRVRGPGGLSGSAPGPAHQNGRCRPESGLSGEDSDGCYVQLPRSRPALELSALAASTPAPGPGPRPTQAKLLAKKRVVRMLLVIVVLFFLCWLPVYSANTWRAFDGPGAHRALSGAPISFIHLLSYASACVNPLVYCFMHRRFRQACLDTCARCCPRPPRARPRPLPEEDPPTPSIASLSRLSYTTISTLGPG
Briefly: CCK Receptor Binding (Brain): inhibition of 125I-CCK(-33) binding. Conditions: guinea pig cerebral cortex membranes. On the set-up: species or system guinea pig (Male Hartley). Here is the method:
2. CCK Receptor Binding (Brain)
CCK-33 was radiolabeled and the binding was performed according to the description for the pancreas method with modifications according to Saito et al., J. Neurochem. 37:483-490, 1981.
Male Hartley guinea pigs (300-500 g) were sacrificed by decapitation and the brains were removed and placed in ice-cold 50 mM, Tris HCl plus 7.58 g/l Trizma-7.4 (pH 7.4 at 25° C.). Cerebral cortex was dissected and used as a receptor source. Each gram of fresh guinea pig brain tissue was homogenized in 10 ml of Tris/Trizma buffer with a Brinkman polytron PT-10. The homogenates were centrifuged at 42,000 g for 15 minutes. Pellets were resuspended in Tris Buffer, centrifuged as above and resuspended in 200 volumes of binding assay buffer (10 mM N-2-hydroxyethyl-piperazine-N'-2-ethane sulfonic acid (HEPES), 5 mM MgCl2, 0.25 mg/ml bacitracin, 1 mM ethylene glycol-bis-(β-aminoethylether-N,N'-tetraadetic acid) (EGTA), and 0.4% bovine serum albumin (BSA)). […] All assays were run in duplicate or triplicate. The reaction mixtures were incubated at 25° C. for 2 hours and centrifuged in a Beckman Microfuge (4 minutes) immediately after adding 1 ml of ice-cold incubation buffer. The supernatant was aspirated and discarded, pellets were counted with a Beckman gamma 5000.

As a reminder, the IC50 is the concentration needed to halve the response being measured. A high value points to lower potency.

As for `CCCN(CCC)C(=O)C(CCC(=O)O)NC(=O)c1ccccc1` (centres unmarked) [proglumide], in the assay with gastrin, the “gastrin antagonism (in words)” value is “very weak in vitro antagonists”.
Regarding `O=S(=O)(F)Cc1ccccc1` [phenylmethane sulfonyl fluoride], on CCK receptor, pancreas, the “effect on the 125-CCK receptor binding assay” value is “no effect”.
For `CSCC[C@H](NC(=O)OC(C)(C)C)C(=O)N[C@@H](CC(=O)O)C(=O)N[C@@H](Cc1ccccc1)C(N)=O` [Boc-Met-Asp-Phe-NH2] (Boc-Met-Asp-Phe-NH2), the “CCK antagonism (in words)” value in the assay with CCK receptor is “can function as CCK antagonists”.
`CN1C(=O)[C@@H](NC(=O)c2cc3cc(O)ccc3[nH]2)N=C(c2ccccc2)c2ccccc21` [Example 15, 1,3-Dihydro-3-(5-hydroxyindole-2-carbonylamino)-1-methyl-5-phenyl-2H-1,4-benzodiazepin-2-one]: in assay [1], the IC50 worked out at 910 nM.
As to `CSCC[C@H](NC(=O)[C@H](Cc1ccc(OS(=O)(=O)O)cc1)NC(=O)OCc1ccccc1)C(=O)NCC(=O)N[C@@H](Cc1c[nH]c2ccccc12)C(=O)N[C@@H](CCSC)C(=O)N[C@@H](CC(=O)O)C(N)=O` [Cbz-Tyr(SO3 H)-Met-Gly-Trp-Met-Asp-NH2] (Cbz-[sY]MGWMD-NH2), in the assay on CCK receptor, the “CCK antagonism (in words)” value is “can function as CCK antagonists; also recorded: partial agonist”.
With `c1cnc2c(c1)ccc1cccnc12` [o-phenanthroline], the “effect on the 125-CCK receptor binding assay” value on CCK receptor, pancreas was “no effect”.
As to `CCCC(=O)Nc1nc2c(ncn2[C@@H]2O[C@@H]3COP(=O)(O)O[C@H]3[C@H]2OC(=O)CCC)c(=O)[nH]1` [dibutyryl cyclic GMP], in the assay on CCK receptor, the “CCK antagonism (in words)” value is listed as “the most potent”.
On to `CSCC[C@H](N)C(=O)N[C@@H](CC(=O)O)C(=O)N[C@@H](Cc1ccccc1)C(N)=O` [Met-Asp-Phe-NH2] (H-Met-Asp-Phe-NH2), for which the “CCK antagonism (in words)” value in the assay with CCK receptor was “can function as CCK antagonists”.
